Several values for one entry are separate records, joined by “and”; a condition that tells them apart may be missing. Identical values can stand only once. Like-named read-outs stand apart in the source and are kept apart here.

Data set [1] deals with patients with major depressive episode. The note with it: for change in depression score (HAM-D), FIG. 2: after 6 weeks. The method, then: In the present invention, experiments were conducted on patients other than the patient group of a prior report (reference 6). The patient subjects who participated in the experiments of the present invention were all […] and were enrolled in the Clinical Trials Program of the Samsung Medical Center Geropsychiatry and Affective Disorder Clinics (Seoul Korea). The affective disorder section of the Samsung Psychiatric Evaluation Schedule (SPES) uses the Korean version of the Structured Clinical Interview for DSM-IV Axis-I disorders (SCID-IV; 4th edition, reference 17).
In the present invention, at least one family member who is living with the patient was interviewed to supplement the patient's report of symptoms, behaviors, level of functioning, duration of episode, and recent treatments. The patient subjects who participated in the experiments of the present invention all fulfilled DSM-IV criteria for major depressive episode, the Korean version of the Structured Clinical Interview for DSM-IV Axis-I disorders (4th edition). Diagnoses were confirmed by a board certified psychiatrist on the basis of the SPES, case review notes, and other relevant data. A minimum baseline 17-item Hamilton depression scale (HAM-D) score of 15 was required.
Patient subjects, who received other psychotropic medications within 2 weeks of the study or fluoxetine within 4 weeks, were excluded. In the present invention, potential subjects were excluded for pregnancy, significant medical conditions, abnormal laboratory baseline values, unstable psychiatric features (e.g., suicidality), history of alcohol or drug dependence, seizures, head trauma with loss of consciousness, neurologic illness, or concomitant Axis I psychiatric disorder. The protocol was approved by the ethics review board of Samsung Medical Center, Seoul, Korea. Signed informed consent was obtained from all participants.
Dose titration was completed within 2 weeks.
Remission was defined as a HAM-D of less than 8 at 6 weeks (reference 19).
In the present invention, 208 patients (86% of the original participants) completed the six-week treatment trial. Sixteen patients receiving NRI treatment and 17 patients receiving SSRI treatment dropped out. […] Ten patients were excluded, either because their plasma drug concentrations were undetectable, consistent with noncompliance (N=6) or were in the range consistent with extensive drug metabolism (<200 ng/ml norfluoxetine-fluoxetine and <30 ng/ml sertraline, N=4) (reference 20). […] These 33 dropouts were excluded in data analyses.
Genomic DNA was extracted from whole blood using a Wizard Genomic Purification kit (Promega, Madison, Wis., USA). The present inventors analyzed the genotype of the 5-HTT promoter s/l polymorphism (5-HTTLPR), the genotype of the 5-HTT intron 2 s/l polymorphism, and the NET G1287A polymorphism in exon 9. For this purpose, the G1287A polymorphism in exon 9 was amplified by PCR with primers of SEQ ID NO: 1 and SEQ ID NO: 2 and digested by restriction enzyme Sau96I.

A short description of data set [2]: plasma drug levels by HPLC-MS/MS, trough samples at end of week 4.

With `CNCCC=C1c2ccccc2CCc2ccccc21` [nortriptyline], the Response rate in data set [1] (5-HTT promoter (5-HTTLPR) ss genotype, 6 weeks, listed as NRI) was 76% and 38/50(76.0) %; in data set [1] (NET A carrier + 5-HTT promoter l carrier, any intron 2 genotype), 22%; in data set [1] (NET A carrier + 5-HTT promoter ss, any intron 2 genotype), 63%; in data set [1] (NET G1287A AA genotype, 6 weeks), 4/6(66.7) %; in data set [1] (NET G1287A GA genotype, 6 weeks), 16/41(39.0) %; in data set [1] (NET G1287A GA+AA genotypes (A allele carriers), 6 weeks), 43%. The Response rate in data set [1] (NET G1287A GA+AA genotypes (A allele carriers), 6 weeks, listed as NRI) came out at 42.6%. For the same compound, the “change in depression score (HAM-D), FIG. 2” value in data set [1] (NET G1287A GA+AA genotypes) worked out at 0.11; in data set [1] (NET G1287A GG genotype), 0.14. The “Rate of remission (HAM-D of less than 8 at 6 weeks)” value in data set [1] (all patients who completed the 6-week trial) is 29%. In data set [1] (all patients who completed the 6-week trial, listed as NRI), the “Response rate (50% or greater decrease in HAM-D score at 6 weeks)” value is 62% and 55/89 (61.8) %. Further, the “expected treatment success rate when prescribed on NET G1287A examination” value in data set [1] (patient having the GG genotype) came to 83.35%. The “Plasma levels (mean ±SD)” value stood at 123 ± 23 ng/mL in data set [2] (non-responders) and 116 ± 21 ng/mL in data set [2] (responders).
On to `CN[C@H]1CC[C@@H](c2ccc(Cl)c(Cl)c2)c2ccccc21` [sertraline], for which the results for the “Plasma levels (mean ±SD)” value in data set [2] (non-responders) and in data set [2] (responders) were 72 ± 28 ng/mL and 75 ± 29 ng/mL, respectively.

For the origin of these results see patent publication US20080248470A1, “GENETIC SCREENING FOR PREDICTING ANTIDEPRESSANT DRUG RESPONSE BASED ON THE MONOAMINE TRANSPORTER GENE POLYMORPHISM COMBINATION” (SUNGKYUNKWAN UNIVERSITY Foundation for Corporate …, priority 2007, published 2008).
